Results taken from ChEMBL document CHEMBL1201862, “PubChem BioAssay data set” (2004).
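Five compound concentrations were applied to cells in 96-well plates for 48 hours; endpoints were derived by simple linear interpolation of the resulting dose-response curve. Here, GI50 denotes the concentration required for 50% inhibition of growth.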 Active and inactive are the calls of the source. Rule as the data show it: active = GI50 up to about 1.1 µM and inactive = higher.

Legend:
Assay in all cases: NCI anticancer screen, dose series, 48 h
COLO 205 = tested on: COLO 205
K562 = tested on: K562
UACC-257 = tested on: UACC-257
EKVX = tested on: EKVX
UO-31 = tested on: UO-31
Malme-3M = tested on: Malme-3M
CCRF-CEM = tested on: CCRF-CEM
HT-29 = tested on: HT-29
DLD-1 = tested on: DLD-1
UACC-62 = tested on: UACC-62
IGROV-1 = tested on: IGROV-1
A498 = tested on: A498
RPMI-8226 = tested on: RPMI-8226
SN12C = tested on: SN12C
NCI-H23 = tested on: NCI-H23
MOLT-4 = tested on: MOLT-4
OVCAR-5 = tested on: OVCAR-5
PC-3 = tested on: PC-3
NCI/ADR-RES = tested on: NCI/ADR-RES
MCF7 = tested on: MCF7

Structure (SMILES) | GI50 (COLO 205) | GI50 (K562) | GI50 (UACC-257) | GI50 (EKVX) | GI50 (UO-31) | GI50 (Malme-3M) | GI50 (CCRF-CEM) | GI50 (HT-29) | GI50 (DLD-1) | GI50 (UACC-62) | GI50 (IGROV-1) | GI50 (A498) | GI50 (RPMI-8226) | GI50 (SN12C) | GI50 (NCI-H23) | GI50 (MOLT-4) | GI50 (OVCAR-5) | GI50 (PC-3) | GI50 (NCI/ADR-RES) | GI50 (MCF7)
O=C(Cc1ccccc1)NN1C(=O)C(Cl)C1c1cccc([N+](=O)[O-])c1 (centres undefined) | > 100 µM (inactive) | 21.3 µM (inactive) | 36.6 µM (inactive) | 34.8 µM (inactive) | 31.7 µM (inactive) | > 78.5 µM (inactive) | 2.33 µM (inactive) | 3.68 µM (inactive) | 37.9 µM (inactive) | 31.3 µM (inactive) | 4.18 µM (inactive) | > 100 µM (inactive) | 16.6 µM (inactive) | 38.8 µM (inactive) | 26.4 µM (inactive) | 12.4 µM (inactive) | > 79.1 µM (inactive) | – | – | –
CCOC(=O)C(C)(c1c(C)[nH]c2ccccc12)c1c(C)[nH]c2ccccc12 | – | 8.36 µM (inactive) | 14.8 µM (inactive) | 25.5 µM (inactive) | 12.5 µM (inactive) | 17.3 µM (inactive) | 17.9 µM (inactive) | 16.7 µM (inactive) | 23.7 µM (inactive) | 14.2 µM (inactive) | 20.6 µM (inactive) | 17.8 µM (inactive) | 16.8 µM (inactive) | – | 17.1 µM (inactive) | 13.6 µM (inactive) | 19.6 µM (inactive) | – | – | –
CC(C)(C)C1=CC(=N/N=c2\scc(-c3ccccc3)n2-c2ccccc2)C=C(C(C)(C)C)C1=O | > 100 µM (inactive) | > 100 µM (inactive) | > 100 µM (inactive) | > 100 µM (inactive) | > 100 µM (inactive) | > 100 µM (inactive) | > 100 µM (inactive) | > 100 µM (inactive) | > 100 µM (inactive) | > 100 µM (inactive) | > 100 µM (inactive) | > 100 µM (inactive) | > 100 µM (inactive) | > 100 µM (inactive) | > 100 µM (inactive) | > 100 µM (inactive) | > 100 µM (inactive) | – | – | –
O=C1Cc2c([nH]c3ccccc23)-c2ccccc2N1 [PAULLONE] | 22 µM (inactive) | 19.5 µM (inactive) | 59.2 µM (inactive) | 49.5 µM (inactive) | 27.2 µM (inactive) | 61.1 µM (inactive) | 22.2 µM (inactive) | 26 µM (inactive) | 33.3 µM (inactive) | – | 27.2 µM (inactive) | 67.8 µM (inactive) | 20.2 µM (inactive) | 38.2 µM (inactive) | 16 µM (inactive) | 17.1 µM (inactive) | 26.8 µM (inactive) | – | – | –
COC1(OC)C2(Cl)C(Cl)=C(Cl)C1(Cl)C1C2C2CC1(C(=O)O)c1ccccc12 (centres undefined) | 23.9 µM (inactive) | 15.9 µM (inactive) | 14.6 µM (inactive) | – | 21.9 µM (inactive) | 16 µM (inactive) | 4.74 µM (inactive) | 30.3 µM (inactive) | 17.8 µM (inactive) | 16.5 µM (inactive) | 28.8 µM (inactive) | 81.1 µM (inactive) | 17 µM (inactive) | 20.5 µM (inactive) | 14.3 µM (inactive) | 13.6 µM (inactive) | > 10 µM (inactive) | – | – | –
COc1ccc2c(c1OC)C1=C(C2=O)c2cc3c(cc2CCN1)OCO3 | 4.08 µM (inactive) | 25.1 µM (inactive) | 34.5 µM (inactive) | 46.9 µM (inactive) | 48.3 µM (inactive) | 69.3 µM (inactive) | 26.1 µM (inactive) | 18.9 µM (inactive) | 42.4 µM (inactive) | 35.4 µM (inactive) | 68.1 µM (inactive) | 55.8 µM (inactive) | 23.1 µM (inactive) | 6.76 µM (inactive) | 46.5 µM (inactive) | 21.6 µM (inactive) | 23.7 µM (inactive) | – | – | –
Cc1cccc2c1NC(c1c(C)[nH]c3ccccc13)C2 (centres undefined) | 56 µM (inactive) | > 100 µM (inactive) | > 100 µM (inactive) | 82.6 µM (inactive) | 64.4 µM (inactive) | > 100 µM (inactive) | 57.7 µM (inactive) | > 100 µM (inactive) | > 100 µM (inactive) | 78.2 µM (inactive) | 33.4 µM (inactive) | > 100 µM (inactive) | > 100 µM (inactive) | > 100 µM (inactive) | > 100 µM (inactive) | 63 µM (inactive) | > 100 µM (inactive) | – | – | –
Brc1ccccc2cc(-c3ccccc3)nc1-2 | 2.14 µM (inactive) | 2.7 µM (inactive) | 5.06 µM (inactive) | 11.5 µM (inactive) | 5.37 µM (inactive) | 3.01 µM (inactive) | 2.47 µM (inactive) | 4.5 µM (inactive) | 1.94 µM (inactive) | 2.53 µM (inactive) | 9.12 µM (inactive) | 14 µM (inactive) | 2.44 µM (inactive) | 1.87 µM (inactive) | 3.26 µM (inactive) | 1.53 µM (inactive) | 7.43 µM (inactive) | 13.5 µM (inactive) | 3.58 µM (inactive) | 8.79 µM (inactive)
Cc1ccc(NC(=O)C2C(=O)N(c3ccc(C)c(C)c3)C(=O)/C2=N/O)cc1C (centres undefined) | > 100 µM (inactive) | > 100 µM (inactive) | > 100 µM (inactive) | > 100 µM (inactive) | > 100 µM (inactive) | > 100 µM (inactive) | > 100 µM (inactive) | > 100 µM (inactive) | > 100 µM (inactive) | > 100 µM (inactive) | > 100 µM (inactive) | > 100 µM (inactive) | > 100 µM (inactive) | > 100 µM (inactive) | > 100 µM (inactive) | > 100 µM (inactive) | > 100 µM (inactive) | – | – | –
CCOc1cc[n+]([C-](C#N)C#N)cc1 | > 100 µM (inactive) | > 100 µM (inactive) | > 100 µM (inactive) | > 100 µM (inactive) | > 100 µM (inactive) | > 100 µM (inactive) | > 100 µM (inactive) | > 100 µM (inactive) | > 100 µM (inactive) | > 100 µM (inactive) | > 100 µM (inactive) | > 100 µM (inactive) | > 100 µM (inactive) | > 100 µM (inactive) | > 100 µM (inactive) | > 100 µM (inactive) | > 100 µM (inactive) | – | – | –
COC12OCCN(C)C1=CC(=O)C1(C)N=NCC12 (centres undefined) | > 100 µM (inactive) | > 100 µM (inactive) | > 100 µM (inactive) | > 100 µM (inactive) | > 100 µM (inactive) | > 100 µM (inactive) | > 100 µM (inactive) | > 100 µM (inactive) | > 100 µM (inactive) | > 100 µM (inactive) | > 100 µM (inactive) | > 100 µM (inactive) | > 100 µM (inactive) | > 100 µM (inactive) | > 100 µM (inactive) | > 100 µM (inactive) | – | – | – | –
CC(C)(C)C(=O)CC(=O)C(C)(C)C.CC(C)(C)C(=O)CC(=O)C(C)(C)C.[SiH4] | 1.46 µM (inactive) | 1.57 µM (inactive) | 2.44 µM (inactive) | < 0.01 µM (active) | 1.99 µM (inactive) | 6.12 µM (inactive) | 1.79 µM (inactive) | 0.475 µM (active) | 0.436 µM (active) | 2.99 µM (inactive) | 1.47 µM (inactive) | 2.81 µM (inactive) | 0.299 µM (active) | 1.18 µM (inactive) | 1.04 µM (active) | 2.11 µM (inactive) | 2.21 µM (inactive) | – | – | –
O=C(NNc1ccccc1)/C(=C/c1ccc2c(c1)OCO2)NC(=O)c1ccccc1 | 40.1 µM (inactive) | > 100 µM (inactive) | > 100 µM (inactive) | > 100 µM (inactive) | > 100 µM (inactive) | > 100 µM (inactive) | 31 µM (inactive) | > 100 µM (inactive) | > 100 µM (inactive) | > 100 µM (inactive) | > 100 µM (inactive) | > 100 µM (inactive) | 52.2 µM (inactive) | > 100 µM (inactive) | > 100 µM (inactive) | 55 µM (inactive) | > 100 µM (inactive) | – | – | –
